In patent US20110053777A1, “Resistance to Acetolactate Synthase-Inhibiting Herbicides” (priority 2006, published 2011):

Key:
[1] = test system: C. tinctoria ALS allele with mutations at both Pro197 and Trp574; test: Herbicide resistance imparted by the double-mutant ALS allele; parameters: species or system Coreopsis tinctoria; conditions: for Pre-emergence and/or post-emergence resistance to herbicide: novel allele with two point mutations; for Resistance of the clone with mutations at both Pro197 and Trp574: resistant clone with both mutations
[2] = test system: ALS enzyme from the resistant C. tinctoria mutants; test: ALS enzyme assay, C. tinctoria mutant versus susceptible; format: biochemical
Description: (§1) ALS enzyme Assay: An ALS enzyme assay was used to determine if resistance in the mutants was due to the ALS enzyme itself in the mutant plants. A modification was used of the colorimetric method of Singh B. K., Stidham M. A., and Shaner D. L. 1988. Assay of acetohydroxyacid synthase. Analytical Biochemistry 171:173-179. Rice plants were used as controls. Sulfometuron methyl (Oust), chlorsulfuron (Glean), and imazapyr (Arsenal) were used as ALS inhibitors. Briefly, 10 grams of young leaves pooled from either mutant plants or from susceptible plants were ground to a powder in liquid nitrogen, and mixed with 50 ml of extraction buffer containing 100 mM K2HPO4 (pH 7.5), 10 mM sodium pyruvate, 5 mM EDTA, 1 mM valine, 1 mM leucine, 10 mM cysteine, 0.1 mM flavin adenine dinucleotide, 5 mM MgCl2, 10% (v/v) glycerol, and 1% (w/v) polyvinylpyrrolidone. The homogenate was filtered through eight layers of cheesecloth and centrifuged at 25,000 g at 4° C. for 20 min. The supernatant was brought to 50% saturation with (NH4)2SO4 by adding an equal volume of 100% saturated extraction buffer, and was then allowed to stand for 20-30 min on ice. The resulting solution was centrifuged at 25,000 g at 4° C. for another 20 min. The pellet was dissolved in 10 ml resuspension buffer containing 100 mM K2HPO4 (pH7.5), 1 mM EDTA, 100 mM NaCl, and 10% (v/v) glycerol. Bradford Reagent (SIGMA, Saint Louis, Mo., USA) was used to determine the concentration of total protein in solution; and resuspension buffer was used to adjust the concentrations of total protein from wild- and mutant-type of C. tinctoria to the same level.
(§2) ALS activity was measured by mixing 1.5 ml of assay buffer, containing 100 mM K2HPO4 (pH 7.0), 10 mM MgCl2, 100 mM sodium pyruvate, 1 mM thiamine pyrophosphate, 0.1 mM flavin adenine dinucleotide, and 0.5 mL of the ALS extract, with varying amounts of herbicide (0.0.1, 1, 10, 100, 1000 μM). The mixture was then incubated at 37° C. for 1 h. […] The mixtures were then centrifuged at 12,000 g for 10 min, and absorbance was measured at 530 nm with a Spectrophotometer 690.

[3] = test system: resistant C. tinctoria plants; test: Greenhouse herbicide spray test, resistant plants; format: in vivo
Protocol: (§3) Response of resistant and susceptible C. tinctoria to imidazolinone and sulfonylurea herbicides treatments: Both wild-type and mutant strains of C. tinctoria were planted in the greenhouse with ˜100 seeds per pot. Individual plants were transplanted to separate pots after seven weeks. The greenhouse regime comprised natural light with temperatures of 25 to 30° C. during the day and 15 to 20° C. at night. The experimental setup was a completely randomized design with five treatments and six plants (replications) per treatment for both wild-type and mutant strains. The five treatments were Arsenal (imazapyr), Oust (sulfometuron methyl), Arsenal+Oust sequential, Oust+Arsenal sequential, and control (no herbicide). […] to individual mutant or susceptible, […], with 12 plants per each herbicide treatment for both wild-type and mutants. Ten days later, the same rate of Oust was sprayed on six plants that had previously been treated with Arsenal, and the same rate of Arsenal was sprayed on six plants that had previously been treated with Oust, for both wild-type and mutants. […]
Plant height in resistant plants was not affected when sprayed with […] or imazapyr, as compared to the unsprayed resistant controls. […] It appeared that the imazapyr+sulfosulfuron methyl treatment stimulated growth in the resistant plants, an observation that will be confirmed in follow-up experiments. Various strains or genotypes of C. tinctoria were used in this study, so a direct evaluation of herbicide on plant height should be viewed with caution. […] Herbicide injury ratings for the resistant plants ranged from 0.5 to 1.2 (Table 2).

[4] = test system: susceptible C. tinctoria plants; test: Greenhouse herbicide spray test, susceptible plants; format: in vivo; conditions: SM 8 oz. a.i./A, IM 2 oz. a.i./A
Protocol: as §3
The range of herbicide injury ratings for the sprayed susceptible plants was 3.3 to 4.8, with essentially no injury for the unsprayed controls.

[5] = target: T1, AHAS enzyme from CL161 rice (Oryza sativa subsp. japonica, UniProt Q6K2E8, S627N); test: ALS enzyme assay, CL161 rice versus CCDR rice; format: biochemical
T1 construct: from tissue; host or cells: leaves of CL161 rice plants; crude ammonium sulfate fraction
Description: as §1, §2

[6] = test system: Idlewild-grown control seed (herbicide-sensitive Coreopsis); test: Field planting sprayed with Oust, Idlewild-grown control seed; format: in vivo, Coreopsis tinctoria; conditions: single application of Oust at 0.07 pounds ai/A
Description: (§4) Seed were harvested from mature Coreopsis with a combine from plantings both inside and outside the herbicide treated areas at the Idlewild Research Station in Clinton, La. Seed were also harvested with a combine from the roadside area near Chase, La. Putative herbicide-resistant seed from the Chase location, and putative herbicide-sensitive seed from the Idlewild Research Station were separately cleaned and stored in a climate-controlled seed storage facility.
(§5) Seed samples from both seed sources were planted in March at the Idlewild Research Station using a small grain drill, at a 2 pound per acre seeding rate. Area one contained both control seed grown the previous season at the Idlewild Research Station, and seed obtained from the Chase, La. site. A second area was planted in March exclusively with seed from Chase, La. A third area was planted in April with seed from Chase, La.
(§6) A single application of Oust at 0.07 pounds ai/A was applied in mid-May to half of the first and third plantings and to all of the second planting.

[7] = test system: seed from Chase (herbicide-resistant Coreopsis); test: Field planting sprayed with Oust, seed from Chase; format: in vivo, Coreopsis tinctoria
Description: as §4, §5, §6

[8] = test system: susceptible transplants from Idlewild; test: Transplanting trial, susceptible transplants; format: in vivo, Coreopsis tinctoria; conditions: applied 2 weeks after transplant, ratings 2 and 4 weeks after application
Protocol: A transplanting trial was also conducted in May at the Idlewild Research Station. Five-inch diameter divots of plants were collected at both the Chase and Idlewild sites. Divots were transplanted to a location at Idlewild which had had no previous Coreopsis crop. Divots were transplanted in a paired arrangement on 36 inch centers. Oust, Plateau and Outrider were applied at various rates 2 weeks after transplant. The trial used a randomized complete block design with 3 replications. Visual injury and height ratings were taken 2 and 4 weeks after application. Injury to the susceptible transplants from Idlewild ranged from a high of 100% at all rates of Oust to a low of 60% with the 0.06 pound ai/A rate of Outrider. No injury was observed, nor any height differences noted in any application made to the resistant transplants from the Chase site.

[9] = test system: susceptible Coreopsis; test: Field trial of ALS-inhibiting herbicides on F1 plants, commercial control seed; format: in vivo, Coreopsis tinctoria; conditions: Oust applied at 0.07 pounds ai/A, ratings taken at 23 and 49 days after application
Protocol: To confirm herbicide resistance, and to characterize herbicide resistance profiles, seeds from the roadside-harvested, putatively-resistant Coreopsis were harvested (F0) and planted in a field in a separate location from the original roadside stand. The resulting F0 plants were not subjected to herbicide treatment. F1 seeds were harvested from the F0 plants, and the F1 seeds were planted in a field in several blocks and replicates. The resulting F1 plants were treated with various AHAS-inhibiting herbicides.
Commercial Coreopsis tinctoria seed were obtained as controls from two commercial nurseries. The commercially-obtained seed and the experimental seed were planted with a small grain drill at a seeding rate of 2 pounds per acre. Three months later, herbicides were applied to the F1 plants at different rates in a randomized complete block design with three replications. The ALS-inhibiting herbicides used in this trial were sulfometuron methyl (trade name Oust™); imazapic (trade name Plateau™); sulfosulfuron, 1-(2-ethylsulfonylimidazo[1,2a]pyridin-3-ylsulfonyl)-3-(4,6-dimethoxypyrimidin-2-yl) urea (trade name Outrider™); and DPX 6447.
Percent injury ratings were taken at 23 and 49 days after herbicide application. All herbicide treatments injured the susceptible Coreopsis. […]

[10] = SM 8 oz. a.i./A, IM 2 oz. a.i./A, sequential sprays March 3 and March 13
[11] = sequential sprays March 3 and March 13, 25 days after treatment

T1 sequence (Q6K2E8 44-644 S627N): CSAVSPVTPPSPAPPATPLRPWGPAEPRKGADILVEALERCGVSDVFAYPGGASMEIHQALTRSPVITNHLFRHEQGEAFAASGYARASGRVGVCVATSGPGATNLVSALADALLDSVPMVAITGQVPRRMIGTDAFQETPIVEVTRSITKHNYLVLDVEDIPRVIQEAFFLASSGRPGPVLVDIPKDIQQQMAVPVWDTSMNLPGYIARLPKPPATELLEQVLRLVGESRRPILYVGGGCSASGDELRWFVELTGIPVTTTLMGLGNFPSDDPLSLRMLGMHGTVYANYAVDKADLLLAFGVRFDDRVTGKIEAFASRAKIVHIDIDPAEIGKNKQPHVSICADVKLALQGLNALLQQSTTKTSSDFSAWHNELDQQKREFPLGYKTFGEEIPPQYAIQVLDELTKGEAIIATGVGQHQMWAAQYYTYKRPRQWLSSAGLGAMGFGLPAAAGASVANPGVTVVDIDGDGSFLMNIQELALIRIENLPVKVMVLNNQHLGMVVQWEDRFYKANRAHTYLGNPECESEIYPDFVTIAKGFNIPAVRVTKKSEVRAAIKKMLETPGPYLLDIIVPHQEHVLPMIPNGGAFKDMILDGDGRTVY

## Cc1cnc(C2=NC(C)(C(C)C)C(=O)N2)c(C(=O)O)c1 (racemic) [imazapic, (±)-2-[4,5-dihydro-4-methyl-4-(1-methyl-ethyl)-5-oxo-1H-imidazol-2-yl]-5-methyl-3-pyridinecarboxylic acid]
[1]
  Pre-emergence and/or post-emergence resistance to herbicide: Resistance has been demonstrated

## CC(C)C1(C)N=C(c2ncccc2C(=O)O)NC1=O (centres unmarked) [Arsenal, 2-[4,5-dihydro-4-methyl-4-(1-methylethyl)-5-oxo-1H-imidazol-2-yl]-3-pyridinecarboxylic acid]
[1]
  Pre-emergence and/or post-emergence resistance to herbicide: Resistance has been demonstrated
  Resistance of the clone with mutations at both Pro197 and Trp574: strong resistance
[2]; Arsenal at 10 to 100 μM, FIG. 1a
  Tolerance of mutant ALS enzyme compared to susceptible variety: ~2.5 fold
[3]
  Plant height compared to the unsprayed resistant controls (in words): not affected
[3]; [10]
  % height reduction compared to no spray control: 0%
  Plant height (cm): 9.2 cm
[3]; scale 0 = no injury, 10 = dead plant, SM 8 oz. a.i./A, IM 2 oz. a.i./A
  Injury rating: 0.7
[4]; [11]
  % height reduction compared to no spray control: 80%
  Plant height (cm): 11.0 cm
[4]; scale 0 = no injury, 10 = dead plant
  Injury rating: 3.5
[5]; Arsenal at 10 μM, FIG. 1b
  Tolerance of CL161 rice enzyme compared to control: < 2 fold

## COc1nc(C)nc(NC(=O)NS(=O)(=O)c2ccccc2Cl)n1 [Glean, 2-chloro-N-[(4-methoxy-6-methyl-1,3,5-triazin-2-yl)aminocarbonyl]benzenesulfonamide]
[1]
  Resistance of the clone with mutations at both Pro197 and Trp574: strong resistance
[2]; Glean at 1 to 10 μM, FIG. 1c
  Tolerance of mutant AHAS compared to susceptible control: ~4.5 fold
[5]; Glean at 1 μM, FIG. 1d
  Tolerance of CL161 rice AHAS compared to control: < 1 fold

## COC(=O)c1ccccc1S(=O)(=O)NC(=O)Nc1nc(C)cc(C)n1 [Oust, 2-[[[[(4,6-dimethyl-2-pyrimidinyl)amino]carbonyl]amino]sulfonyl]benzoic acid methyl ester]
[6]
  injury rate: 98%
[1]
  Pre-emergence and/or post-emergence resistance to herbicide: Resistance has been demonstrated
  Resistance of the clone with mutations at both Pro197 and Trp574: strong resistance
[2]; Oust, FIG. 1e
  Tolerance of mutant ALS compared to susceptible control (in words): more tolerant than the susceptible control for Oust herbicide (sulfometuron methyl) (FIG. 1e), although the difference was not significant
[7]; second application of Oust at 0.14 pounds ai/A
  effect of second application: no noticeable effect
[7]; single application of Oust at 0.07 pounds ai/A
  injury rate: less than 1%
[8]; all rates of Oust
  Visual injury: 100%
[5]; 100 μM of Oust, FIG. 1f
  Tolerance of CL161 rice compared to susceptible variety CCDR (in words): significantly greater tolerance
[9]
  Percent injury rating: 98%

## CCS(=O)(=O)c1nc2ccccn2c1S(=O)(=O)NC(=O)Nc1nc(OC)cc(OC)n1 [Outrider, 1-(2-ethylsulfonylimidazo[1,2a]pyridin-3-ylsulfonyl)-3-(4,6-dimethoxypyrimidin-2-yl) urea]
[1]
  Pre-emergence and/or post-emergence resistance to herbicide: Resistance has been demonstrated
[8]; 0.06 pound ai/A rate of Outrider
  Visual injury: 60%

## COc1cc(OC)nc(NC(=O)NS(=O)(=O)c2ncccc2C(F)(F)F)n1 [flazasulfuron]
[1]
  Pre-emergence and/or post-emergence resistance to herbicide: Resistance has been demonstrated

## COC(=O)c1ccccc1S(=O)(=O)NC(=O)Nc1nc(C)nc(OC)n1 [metsulfuron methyl, methyl 2-[[[[(4-methoxy-6-methyl-1,3,5-triazin-2-yl)amino]carbonyl]amino]sulfonyl]benzoate]
[1]
  Pre-emergence and/or post-emergence resistance to herbicide: Resistance has been demonstrated

## COc1nc(C)nc(NC(=O)NS(=O)(=O)c2ccccc2OCCCl)n1 [triasulfuron, 3-(6-methoxy-4-methyl-1,3,5-triazin-2-yl)-1-[2-(2-chloroethoxy)-phenylsulfonyl]-urea]
[1]
  Pre-emergence and/or post-emergence resistance to herbicide: Resistance has been demonstrated
